The record followed here is paper PMC10674894 (Viruses, 2023).

The subject of one data set is CHIKV DRDE-07. Nature of the data set: In vitro screening against CHIKV (CPE inhibition and MTT cell viability). Type of data set: cell-based, chikungunya virus. The note with it: Table S1, CHIKV-infected Vero cells; for % Cell viability: 72 hpi, MTT assay; for CPE: arbitrary score of cytopathic effect at >48 hpi. (Formazan colour is commonly taken as a measure of viable cells.)

In a further data set the test system is Vero cells. Nature of the data set: Cytotoxicity MTT assay in Vero cells (MNTD, CC50). The class given is cell-based, African green monkey. The note with it: Table S1; Vero cells.

Molecules are shown by their SMILES.

Turning to `CC1(C)CC(=O)C2=C(C1)OC1=C(C(=O)CC(C)(C)C1)C2c1cccc(O)c1` [DCR123, 9‐(3‐hydroxyphenyl)‐3,3,6,6‐tetramethyl‐2,3,4,5,6,7,8,9‐octahydro‐1H‐xanthene‐1,8‐dione], in the data set on CHIKV DRDE-07, the “% Cell viability” value is listed as 12.01% and the CPE entry is listed as “++++ (>60% (++++))”. This molecule came in with an MNTD in the data set with Vero cells of 125 µM.

With `CC1(C)CC(=O)C2=C(C1)OC1=C(C(=O)CC(C)(C)C1)C2c1ccccc1Cl` [DCR124, 9‐(2‐chlorophenyl)‐3,3,6,6‐tetramethyl‐2,3,4,5,6,7,8,9‐octahydro‐1H‐xanthene‐1,8‐dione], in the data set on CHIKV DRDE-07, the “% Cell viability” value worked out at 11.05% and the CPE result was “++++ (>60% (++++))”. Also, the MNTD in the data set with Vero cells was determined as 125 µM.

For `COc1cccc(C2C3=C(CC(C)(C)CC3=O)OC3=C2C(=O)CC(C)(C)C3)c1` [DCR125, 9‐(3‐methoxyphenyl)‐3,3,6,6‐tetramethyl‐2,3,4,5,6,7,8,9‐octahydro‐1H‐xanthene‐1,8‐dione], in the data set with CHIKV DRDE-07, the “% Cell viability” value is 11.19% and the CPE entry was “++++ (>60% (++++))”. The same molecule showed an MNTD in the data set with Vero cells of 125 µM.

Consider `CC1(C)CC(=O)C2=C(C1)OC1=C(C(=O)CC(C)(C)C1)C2c1ccc([N+](=O)[O-])cc1` [DCR126, 3,3,6,6‐tetramethyl‐9‐(4‐nitrophenyl)‐2,3,4,5,6,7,8,9‐octahydro‐1H‐xanthene‐1,8‐dione], for which, in the data set on CHIKV DRDE-07, the “% Cell viability” value was determined as 17.99% and the CPE entry is given as “++++ (>60% (++++))”. This molecule also displayed an MNTD in the data set with Vero cells of 15.6 µM.

As for `Cc1ccc(C2C3=C(CC(C)(C)CC3=O)OC3=C2C(=O)CC(C)(C)C3)cc1` [DCR127, 3,3,6,6‐tetramethyl‐9‐(4‐methylphenyl)‐2,3,4,5,6,7,8,9‐octahydro‐1H‐xanthene‐1,8‐dione], in the data set with CHIKV DRDE-07, the “% Cell viability” value was 10.21% and the CPE entry is on record as “++++ (>60% (++++))”. Also, the MNTD in the data set with Vero cells was 125 µM.

For `COc1ccc(C2C3=C(CC(C)(C)CC3=O)OC3=C2C(=O)CC(C)(C)C3)cc1` [DCR128, 9‐(4‐methoxyphenyl)‐3,3,6,6‐tetramethyl‐2,3,4,5,6,7,8,9‐octahydro‐1H‐xanthene‐1,8‐dione], in the data set on CHIKV DRDE-07, the “% Cell viability” value is listed as 11.01% and the CPE entry is listed as “++++ (>60% (++++))”. The molecule also yielded an MNTD in the data set on Vero cells of 125 µM.

Consider `CC1(C)CC(=O)C2=C(C1)OC1=C(C(=O)CC(C)(C)C1)C2c1cccc([N+](=O)[O-])c1` [DCR129, 3,3,6,6‐tetramethyl‐9‐(3‐nitrophenyl)‐2,3,4,5,6,7,8,9‐octahydro‐1H‐xanthene‐1,8‐dione], for which, in the data set on CHIKV DRDE-07, the “% Cell viability” value came out at 16.85% and the CPE result was “++++ (>60% (++++))”. The molecule further gave an MNTD in the data set with Vero cells of 31.25 µM.

Take `CCOc1cc(C2C3=C(CC(C)(C)CC3=O)OC3=C2C(=O)CC(C)(C)C3)ccc1O` [DCR130, 9‐(3‐ethoxy‐4‐hydroxyphenyl)‐3,3,6,6‐tetramethyl‐2,3,4,5,6,7,8,9‐octahydro‐1H‐xanthene‐1,8‐dione]: in the data set with CHIKV DRDE-07, the “% Cell viability” value is 17.21% and the CPE result is on record as “++++ (>60% (++++))”. This molecule also registered an MNTD with Vero cells of 15.6 µM.

`COc1cc(Br)cc(C2C3=C(CC(C)(C)CC3=O)OC3=C2C(=O)CC(C)(C)C3)c1` [DCR131, 9‐(3‐bromo‐5‐methoxyphenyl)‐3,3,6,6‐tetramethyl‐2,3,4,5,6,7,8,9‐octahydro‐1H‐xanthene‐1,8‐dione]: in the data set with CHIKV DRDE-07, the “% Cell viability” value turned out to be 8.01% and the CPE result was “++++ (>60% (++++))”. Besides, the MNTD with Vero cells is reported as 125 µM.

Regarding `CC1(C)CC(=O)C2=C(C1)OC1=C(C(=O)CC(C)(C)C1)C2c1ccccn1` [DCR132, 3,3,6,6‐tetramethyl‐9‐(pyridin‐2‐yl)‐2,3,4,5,6,7,8,9‐octahydro‐1H‐xanthene‐1,8‐dione], in the data set with CHIKV DRDE-07, the “% Cell viability” value came to 9.06% and the CPE result is on record as “++++ (>60% (++++))”. Moreover, in the data set with Vero cells, the MNTD was found to be 125 µM.

In the case of `CC1(C)CC(=O)C2=C(C1)OC1=C(C(=O)CC(C)(C)C1)C2c1ccc(C2C3=C(CC(C)(C)CC3=O)OC3=C2C(=O)CC(C)(C)C3)cc1` [DCR133, 3,3,6,6‐tetramethyl‐9‐[4‐(3,3,6,6‐tetramethyl‐1,8‐dioxo‐dodecahydro‐1H‐xanthen‐9‐yl)phenyl]‐2,3,4,5,6,7,8,9‐octahydro‐1H‐xanthene‐1,8‐dione], in the data set on CHIKV DRDE-07, the “% Cell viability” value is 11.14% and the CPE result is “++++ (>60% (++++))”. In addition, the MNTD in the data set on Vero cells worked out at 125 µM.

For the molecule `N#Cc1ccccc1N1CCCCC1` [DCR140, 2-Piperidin-1-yl-benzonitrile], in the data set on CHIKV DRDE-07, the “% Cell viability” value is 14.97% and the CPE entry is recorded as “++++ (>60% (++++))”. The molecule also returned an MNTD with Vero cells of 250 µM.

Turning to `N#Cc1c(F)cccc1N1CCCCC1` [DCR141, 2-Fluoro-6-piperidin-1-yl-benzonitrile], in the data set on CHIKV DRDE-07, the “% Cell viability” value stood at 19.24% and the CPE result is “++++ (>60% (++++))”. This molecule also displayed an MNTD with Vero cells of 125 µM.

Turning to `CC1CN(c2ccccc2C#N)CC(C)N1` (stereo not drawn) [DCR142, 2-(3,5-Dimethyl-piperazin-1-yl)-benzonitrile], in the data set on CHIKV DRDE-07, the “% Cell viability” value was 13.08% and the CPE result is recorded as “++++ (>60% (++++))”. This molecule also yielded an MNTD in the data set with Vero cells of 125 µM.

Take `COc1cccc(N2CCCCC2)c1C#N` [DCR143, 2-Methoxy-6-piperidin-1-yl-benzonitrile]: in the data set on CHIKV DRDE-07, the “% Cell viability” value turned out to be 17.42% and the CPE result is on record as “++++ (>60% (++++))”. For the same molecule, in the data set with Vero cells, the MNTD was 125 µM.

Regarding `O=[N+]([O-])c1ccc(N2CCCCC2)c([N+](=O)[O-])c1` [DCR144, 1-(2,4-Dinitro-phenyl)-piperidine], in the data set with CHIKV DRDE-07, the “% Cell viability” value worked out at 25.21% and the CPE result is recorded as “++++ (>60% (++++))”. The molecule also returned an MNTD in the data set on Vero cells of 125 µM.

Take `N#Cc1cc(F)ccc1N1CCCCC1` [DCR145, 5-Fluoro-2-piperidin-1-yl-benzonitrile]: in the data set on CHIKV DRDE-07, the “% Cell viability” value amounted to 0% and the CPE result is reported as “++++ (>60% (++++))”. Besides, the MNTD with Vero cells worked out at 125 µM.

For `N#Cc1ccccc1N1CCOCC1` [DCR146, 2-Morpholin-4-yl-benzonitrile], in the data set with CHIKV DRDE-07, the “% Cell viability” value was -3.98% and the CPE entry is recorded as “++++ (>60% (++++))”. In addition, the MNTD with Vero cells amounted to 250 µM.

For `N#Cc1ccccc1NCc1ccccc1` [DCR147, 2-Benzylamino-benzonitrile], in the data set with CHIKV DRDE-07, the “% Cell viability” value amounted to 17.97% and the CPE result was “++++ (>60% (++++))”. Further, the MNTD in the data set on Vero cells is on record as 125 µM.

Consider `CC1CN(c2ccc(C#N)c(Cl)c2)CC(C)N1` (stereo not drawn) [DCR148, 2-Chloro-4-(3,5-dimethyl-piperazin-1-yl)-benzonitrile], for which, in the data set on CHIKV DRDE-07, the “% Cell viability” value came to 14.42% and the CPE result is listed as “++++ (>60% (++++))”. Besides, in the data set with Vero cells, the MNTD is reported as 125 µM.

Turning to `CC1CN(c2ccc(C(=N)NO)c(Cl)c2)CC(C)N1` (stereo not drawn) [DCR149, 2-Chloro-4-(3,5-dimethyl-piperazin-1-yl)-N-hydroxy-benzamidine], in the data set with CHIKV DRDE-07, the “% Cell viability” value is reported as -21.8% and the CPE entry was “++++ (>60% (++++))”. Besides, the MNTD in the data set with Vero cells is 125 µM.

For the molecule `N#Cc1ccc(N2CCN(CCO)CC2)cc1N1CCN(CCO)CC1` [DCR150, 2,4-Bis-[4-(2-hydroxy-ethyl)-piperazin-1-yl]-benzonitrile], in the data set with CHIKV DRDE-07, the “% Cell viability” value was 18.09% and the CPE entry is on record as “++++ (>60% (++++))”. Moreover, the MNTD in the data set on Vero cells was 62.5 µM.
